Results on nine compounds are retold here after patent publication US8030511B2, “Method for the manufacture of therapeutic compounds and compositions, compounds and compositions produced therewith, and their use” (priority 2006, dated 2011).

A value given as a limit tells only on which side of the number the result lay.

Data set [1] is described as follows: Intravenous infusion of NO dissolved in liquid medium in L-NAME pre-treated rabbit. It counts as in vivo. The method, then:
Experiments were approved by the local ethics committee on animal experimentation. A male New Zealand white rabbit was anesthetised, prepared and examined as in the protocol presented in Example 2. The rabbit was pre-treated with L-NAME (30 mg kg^−1) and received one infusion with NO-gas dissolved in normal saline and one with NO-gas dissolved in lipid emulsion ([…]®, Fresenius Kabi) through the catheter in the jugular vein without carrier flow. The infusion rate was for both liquids 0.5 ml kg^−1 min^−1. There was a recovery period between the two infusions for about 200 min.
The infusion liquids were created the same way. First the liquid was de-aerated for 20 min, in a gas-tight glass chamber with a rubber membrane with an inert gas; in this case helium gas, but nitrogen, argon etc could also be used. After this no oxygen were allowed to enter the liquid throughout the following procedure. The liquid was then purged with pure NO of a few minutes. The liquid was then collected through the rubber membrane in a gas-tight syringe with needle and from this syringe infused by means of syringe pump (864 Syringe Pump, Univentor LTD., Zejtun, Malta) in the jugular vein catheter.

The nature of data set [2]: Verification of NO donating capacity (1% sodium iodide in hot acetic acid, chemiluminescence). It counts as physicochemical. The source says: Samples of eluents from the HPLC system were collected and analyzed for NO/nitrite content by injection into a reaction vessel containing 1% sodium iodide in hot acetic acid. Released nitric oxide was purged into a chemiluminescence analyzer system optimized for detection of nitric oxide by chemiluminescence reaction with ozone and determination of NO+ozone-generated excited NO2 product through counting of emitted photons.

The conditions of data set [3]: Cederqvist et al., 1994; cited from earlier work.
The nature of data set [4]: HPLC of commercial organic nitrites diluted in deoxygenated water versus NO-saturated water. It counts as physicochemical. To be noted: for size of HPLC peak (UV max 225 nm), dilution in de-aerated NO saturated solutions: Novapak C8 or CN column. The method, then: Analysis of reaction mixtures and commercial organic nitrites and nitrates was made by high performance liquid chromatography (HPLC) using reverse phase chromatography on C8, C18 or CN columns (Waters Inc. NOVAPAK™ 4 μm particle size 8×100 mm radial compression columns) by means of two LDC Constametric pumps delivering a constant total flow of 1 ml per min, controlled by a computerized gradient control system generating a linear gradient of 0-100% methanol (elution solvent B) in 33 min, starting 1 min after injecting sample in the aqueous initial elution solvent (solvent A) which contained 5 mM ammonium formiate at pH 6. Separation of eluted compounds was determined by an LDC Spectromonitor variable UV monitor set at 210 nm, followed by a Pharmacia Wavescan wavelength scanning detector producing UV scans between 190 and 370 nm at 4 s intervals which were stored on a computer and analyzed after each HPLC run. The output from the LDC Spectromonitor was continuously recorded on a strip chart recorder.
HPLC: On all three Novapak columns and on the Thermo column a single peak of product, from the reaction between propanol and NO gas, eluted at a gradient concentration of 70-80% methanol. In the NOVAPAK C18 system this corresponded to an elution time of approximately 28 min (FIG. 12, panel C). […] When a standard sample of propyl nitrite (Karl Industries Inc., Aurora, Ohio, USA) diluted in a gas-type cylinder in deoxygenated (10 min He purging) water at 1:1000 was injected, a small peak at 28 min was obtained (FIG. 12, panel A), having an identical UV absorbance max at 225 nm. […] Similar results were obtained on the C8 and CN columns, a single retained peak was obtained from the reaction mixture consisting of propanol and NO, although at somewhat shorter retention times, compared with the C18 system.
Commercial samples of ethyl nitrite, butyl nitrite, and isobutyl nitrite (Sigma-Aldrich) were diluted anaerobically as above and injected onto the HPLC system, using either the Novapak C8 or CN column. Peaks with UV absorbance maxima of approximately 225 nm were obtained in all the samples, but at different retention times corresponding to the expected differences judged from the lipophilic chain length of the compounds. All these peaks were larger if the dilution of the organonitrite had been done in de-aerated NO saturated solutions. The respective peaks with UV max at 225 nm coincided with single similar peaks obtained by treating the corresponding alcohol (ethanol, butanol, isobutanol) with NO gas. This was taken as evidence that the corresponding organic mononitrite had formed.

Another data set deals with venous gas embolism. As to the kind of experiment: Treatment of venous gas embolism in an animal with inhibited NO production. It counts as in vivo. The source says:
The beneficial effects may be induction of vasodilation in the pulmonary vasculature, inhibition of aggregation of trombocytes and/or minor vasodilation in the whole or parts of the systemic circulation, for example in the coronary circulation.

[5] abbreviates: before 30 mg kg^−1 throughout 10 min.

For the compound `COC(=O)[C@@H](N)CCCNC(=N)N[N+](=O)[O-]` [L-NAME, N^G-nitro-L-arginine methyl ester], in data set [1] (30 mg kg^−1 throughout 10 min), the “exhaled nitric oxide after L-NAME infusion” value was less than 1 ppb, the “heart rate (HR) after L-NAME infusion” value was determined as 258 beats min^−1 and the “systemic mean arterial blood pressure (MAP) after L-NAME infusion” value is 128 cmH2O. Besides, the “End-tidal CO2 and the relevant blood gas parameters” value in data set [1] (L-NAME 30 mg kg^−1 throughout 10 min) was “normal”. Also, in data set [1] (setting [5]), the “exhaled nitric oxide before L-NAME infusion” value turned out to be 19 ppb, the “heart rate (HR) before L-NAME infusion” value is 274 beats min^−1 and the “systemic mean arterial blood pressure (MAP) before L-NAME infusion” value came out at 103 cmH2O.

In the case of `O=[N+]([O-])OCC(CO[N+](=O)[O-])O[N+](=O)[O-]` [Nitroglycerin, glyceryl trinitrate], the “release of NO by mild reduction treatment” value in data set [2] was “did not yield a release of NO”. Further, in data set [3], the “generation of NO in vivo” value is “generate NO”.

`CCCCON=O` [butyl nitrite]: in data set [4], the “size of HPLC peak (UV max 225 nm), dilution in de-aerated NO saturated solutions” value (from here on “size … in de-aerated NO saturated solutions”) is listed as “larger”. In addition, the “generation of NO in vivo” value in data set [3] was “generate NO”.

On to `CCON=O` [ethyl nitrite], for which the “size … in de-aerated NO saturated solutions” value in data set [4] is “larger”. Besides, in data set [3], the “generation of NO in vivo” value is recorded as “generate NO”.

Consider `[N]=O` [inhaled nitric oxide, nitric oxide], for which the “treatment of venous gas embolism” value with venous gas embolism was “impossible to treat”.

Consider `CC(C)CCON=O` [isoamyl nitrite], for which, in data set [3], the “generation of NO in vivo” value was “generate NO”.

Regarding `CC(C)CO[N+](=O)[O-]` [isobutyl nitrate], the “generation of NO in vivo” value in data set [3] is “generate NO”.

With `CC(C)CON=O` [isobutyl nitrite], in data set [4], the “size … in de-aerated NO saturated solutions” value is listed as “larger”. Besides, in data set [3], the “generation of NO in vivo” value was “generate NO”.

With `CCCON=O` [propyl nitrite], in data set [4] (dilution 1:1000, Novapak C18), the “size of 28 min HPLC peak, dilution in water saturated with NO gas vs deoxygenated water” value was 5-10 times.
